Test results reported in PMC10008561 (Nature Communications, 2023).
Values joined by “and” are separate entries in the source; they are usually repeats but may differ in a detail not shown here. Equal entries are not always repeated.

Key:
[1] = target: T1, human KOR (Gz) (Homo sapiens, UniProt P41145, D155A); assay: cell-based; settings: HEK-293T
T1 construct: expressed in transfected cells; host or cells: HEK293T

[2] = target: T2, human KOR (Gz) (Homo sapiens, UniProt P41145, L253A); assay: cell-based; settings: HEK-293T
T2 construct: expressed in transfected cells; host or cells: HEK293T
T2 sequence (P41145 whole entry L253A): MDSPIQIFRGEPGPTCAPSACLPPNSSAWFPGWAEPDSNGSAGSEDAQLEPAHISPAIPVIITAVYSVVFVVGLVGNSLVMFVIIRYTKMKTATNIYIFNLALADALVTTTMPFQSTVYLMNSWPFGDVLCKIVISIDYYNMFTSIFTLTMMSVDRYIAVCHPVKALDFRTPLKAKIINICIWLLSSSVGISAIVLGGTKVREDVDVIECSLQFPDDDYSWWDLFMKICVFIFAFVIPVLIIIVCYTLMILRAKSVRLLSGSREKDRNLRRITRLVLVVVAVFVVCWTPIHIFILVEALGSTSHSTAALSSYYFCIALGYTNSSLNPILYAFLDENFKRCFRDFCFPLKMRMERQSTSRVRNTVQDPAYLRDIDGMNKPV

[3] = target: T3, human KOR (Gz) (Homo sapiens, UniProt P41145, E297A); assay: cell-based
T3 construct: expressed in transfected cells; host or cells: HEK293T
T3 sequence (P41145 whole entry E297A): as the sequence (P41145 whole entry L253A) above, with A253L, E297A counted along it

[4] = target: T4, human KOR (Gz) (Homo sapiens, UniProt P41145, K200A); assay: cell-based
T4 construct: expressed in transfected cells; host or cells: HEK293T
T4 sequence (P41145 whole entry K200A): as the sequence (P41145 whole entry L253A) above, with K200A, A253L counted along it

[5] = target: T5, human KOR (Gz) (Homo sapiens, UniProt P41145, Q115N); assay: cell-based
T5 construct: expressed in transfected cells; host or cells: HEK293T
T5 sequence (P41145 whole entry Q115N): as the sequence (P41145 whole entry L253A) above, with Q115N, A253L counted along it

[6] = target: T6, human KOR (Gz) (Homo sapiens, UniProt P41145, R274A); assay: cell-based
T6 construct: expressed in transfected cells; host or cells: HEK293T
T6 sequence (P41145 whole entry R274A): as the sequence (P41145 whole entry L253A) above, with A253L, R274A counted along it

[7] = target: T7, human KOR (Gz) (Homo sapiens, UniProt P41145, T94V); assay: cell-based
T7 construct: expressed in transfected cells; host or cells: HEK293T
T7 sequence (P41145 whole entry T94V): as the sequence (P41145 whole entry L253A) above, with T94V, A253L counted along it

[8] = target: T8, human KOR (Gz) (Homo sapiens, UniProt P41145, D105A); assay: cell-based
T8 construct: expressed in transfected cells; host or cells: HEK293T
T8 sequence (P41145 whole entry D105A): as the sequence (P41145 whole entry L253A) above, with D105A, A253L counted along it

[9] = target: T9, human KOR (Gz) (Homo sapiens, UniProt P41145, N322A); assay: cell-based
T9 construct: expressed in transfected cells; host or cells: HEK293T
T9 sequence (P41145 whole entry N322A): as the sequence (P41145 whole entry L253A) above, with A253L, N322A counted along it

[10] = target: T10, human KOR (Gz) (Homo sapiens, UniProt P41145); assay: cell-based
T10 construct: expressed in transfected cells; host or cells: HEK293T
T10 sequence (P41145 whole entry): as the sequence (P41145 whole entry L253A) above, with A253L counted along it

[11] = target: T11, human KOR (Gz) (Homo sapiens, UniProt P41145, N141A); assay: cell-based
T11 construct: expressed in transfected cells; host or cells: HEK293T
T11 sequence (P41145 whole entry N141A): as the sequence (P41145 whole entry L253A) above, with N141A, A253L counted along it

[12] = target: T12, human KOR (Gz) (Homo sapiens, UniProt P41145, F114L); assay: cell-based
T12 construct: expressed in transfected cells; host or cells: HEK293T
T12 sequence (P41145 whole entry F114L): as the sequence (P41145 whole entry L253A) above, with F114L, A253L counted along it

[13] = target: T13, human KOR (Gz) (Homo sapiens, UniProt P41145, R170A); assay: cell-based
T13 construct: expressed in transfected cells; host or cells: HEK293T
T13 sequence (P41145 whole entry R170A): as the sequence (P41145 whole entry L253A) above, with R170A, A253L counted along it

[14] = target: T14, human KOR (Gz) (Homo sapiens, UniProt P41145, Y320L); assay: cell-based
T14 construct: expressed in transfected cells; host or cells: HEK293T
T14 sequence (P41145 whole entry Y320L): as the sequence (P41145 whole entry L253A) above, with A253L, Y320L counted along it

[15] = target: T15, human KOR (Gz) (Homo sapiens, UniProt P41145, K227A); assay: cell-based
T15 construct: expressed in transfected cells; host or cells: HEK293T
T15 sequence (P41145 whole entry K227A): as the sequence (P41145 whole entry L253A) above, with K227A, A253L counted along it

[16] = target: T16, human KOR (Gz) (Homo sapiens, UniProt P41145, D334A); assay: cell-based
T16 construct: expressed in transfected cells; host or cells: HEK293T
T16 sequence (P41145 whole entry D334A): as the sequence (P41145 whole entry L253A) above, with A253L, D334A counted along it

[17] = target: T17, human KOR (Gz) (Homo sapiens, UniProt P41145, G319L); assay: cell-based
T17 construct: expressed in transfected cells; host or cells: HEK293T
T17 sequence (P41145 whole entry G319L): as the sequence (P41145 whole entry L253A) above, with A253L, G319L counted along it

[18] = target: T18, human KOR (Gz) (Homo sapiens, UniProt P41145, D266A); assay: cell-based
T18 construct: expressed in transfected cells; host or cells: HEK293T
T18 sequence (P41145 whole entry D266A): as the sequence (P41145 whole entry L253A) above, with A253L, D266A counted along it

[19] = test system: KOR; settings: ERK activation versus p38 activation; cited from earlier work
[20] = target: T19, human KOR (Gi3) (Homo sapiens, UniProt P41145, R257A); assay: cell-based; settings: HEK-293T
T19 construct: expressed in transfected cells; host or cells: HEK293T
T19 sequence (P41145 whole entry R257A): as the sequence (P41145 whole entry L253A) above, with A253L, R257A counted along it

[21] = target: T20, human KOR (Gi3) (Homo sapiens, UniProt P41145, K227A); assay: cell-based; settings: HEK-293T
T20 construct: expressed in transfected cells; host or cells: HEK293T
T20 sequence (P41145 whole entry K227A): as the sequence (P41145 whole entry L253A) above, with K227A, A253L counted along it

[22] = target: T21, human KOR (Gi3) (Homo sapiens, UniProt P41145, T94V); assay: cell-based; settings: HEK-293T
T21 construct: expressed in transfected cells; host or cells: HEK293T
T21 sequence (P41145 whole entry T94V): as the sequence (P41145 whole entry L253A) above, with T94V, A253L counted along it

[23] = target: T22, human KOR (Gi3) (Homo sapiens, UniProt P41145, D266A); assay: cell-based; settings: HEK-293T
T22 construct: expressed in transfected cells; host or cells: HEK293T
T22 sequence (P41145 whole entry D266A): as the sequence (P41145 whole entry L253A) above, with A253L, D266A counted along it

[24] = target: T23, human KOR (Gi3) (Homo sapiens, UniProt P41145, L253A); assay: cell-based; settings: HEK-293T
T23 construct: expressed in transfected cells; host or cells: HEK293T
T23 sequence (P41145 whole entry L253A): as the sequence (P41145 whole entry L253A) above

[25] = target: T24, human KOR (Gi3) (Homo sapiens, UniProt P41145, Q115N); assay: cell-based; settings: HEK-293T
T24 construct: expressed in transfected cells; host or cells: HEK293T
T24 sequence (P41145 whole entry Q115N): as the sequence (P41145 whole entry L253A) above, with Q115N, A253L counted along it

[26] = target: T25, human KOR (Gi3) (Homo sapiens, UniProt P41145, N322A); assay: cell-based; settings: HEK-293T
T25 construct: expressed in transfected cells; host or cells: HEK293T
T25 sequence (P41145 whole entry N322A): as the sequence (P41145 whole entry L253A) above, with A253L, N322A counted along it

[27] = target: T26, human KOR (Gi3) (Homo sapiens, UniProt P41145, K200A); assay: cell-based; settings: HEK-293T
T26 construct: expressed in transfected cells; host or cells: HEK293T
T26 sequence (P41145 whole entry K200A): as the sequence (P41145 whole entry L253A) above, with K200A, A253L counted along it

[28] = target: T27, human KOR (Gi3) (Homo sapiens, UniProt P41145, D155A); assay: cell-based; settings: HEK-293T
T27 construct: expressed in transfected cells; host or cells: HEK293T
T27 sequence (P41145 whole entry D155A): as the sequence (P41145 whole entry L253A) above, with D155A, A253L counted along it

[29] = target: T28, human KOR (Gi3) (Homo sapiens, UniProt P41145); assay: cell-based
T28 construct: expressed in transfected cells; host or cells: HEK293T
T28 sequence (P41145 whole entry): as the sequence (P41145 whole entry L253A) above, with A253L counted along it

[30] = target: T29, human KOR (Gi3) (Homo sapiens, UniProt P41145, R274A); assay: cell-based; settings: HEK-293T
T29 construct: expressed in transfected cells; host or cells: HEK293T
T29 sequence (P41145 whole entry R274A): as the sequence (P41145 whole entry L253A) above, with A253L, R274A counted along it

[31] = target: T30, human KOR (Gi3) (Homo sapiens, UniProt P41145, F283A); assay: cell-based; settings: HEK-293T
T30 construct: expressed in transfected cells; host or cells: HEK293T
T30 sequence (P41145 whole entry F283A): as the sequence (P41145 whole entry L253A) above, with A253L, F283A counted along it

[32] = target: T31, human KOR (Gi3) (Homo sapiens, UniProt P41145, R271A); assay: cell-based; settings: HEK-293T
T31 construct: expressed in transfected cells; host or cells: HEK293T
T31 sequence (P41145 whole entry R271A): as the sequence (P41145 whole entry L253A) above, with A253L, R271A counted along it

[33] = target: T32, human KOR (Gi3) (Homo sapiens, UniProt P41145, G319L); assay: cell-based; settings: HEK-293T
T32 construct: expressed in transfected cells; host or cells: HEK293T
T32 sequence (P41145 whole entry G319L): as the sequence (P41145 whole entry L253A) above, with A253L, G319L counted along it

[34] = target: T33, human KOR (Gi3) (Homo sapiens, UniProt P41145, Y139L); assay: cell-based; settings: HEK-293T
T33 construct: expressed in transfected cells; host or cells: HEK293T
T33 sequence (P41145 whole entry Y139L): as the sequence (P41145 whole entry L253A) above, with Y139L, A253L counted along it

[35] = target: T34, human KOR (Gi3) (Homo sapiens, UniProt P41145, D105A); assay: cell-based; settings: HEK-293T
T34 construct: expressed in transfected cells; host or cells: HEK293T
T34 sequence (P41145 whole entry D105A): as the sequence (P41145 whole entry L253A) above, with D105A, A253L counted along it

[36] = HEK-293T, read-out: Gz (Figure 5A concentration-response, replicate values)

T1 sequence (P41145 whole entry D155A): as the sequence (P41145 whole entry L253A) above, with D155A, A253L counted along it

SMILES: CN(C(=O)/C=C/c1ccoc1)[C@@H]1CC[C@@]2(O)[C@H]3Cc4ccc(O)c5c4[C@@]2(CCN3CC2CC2)[C@H]1O5 [Nalfurafine, nalfurafine]
- Emax [1]: 92.7%
- Emax [2]: 112%
- FC vs wild type [3]: 1
- Emax ([3]; HEK-293T): 103%
- FC vs wild type [4]: 9
- Emax ([4]; HEK-293T): 108%
- FC vs wild type [5]: 39
- Emax ([5]; HEK-293T): 78.7%
- FC vs wild type [6]: 977
- Emax ([6]; HEK-293T): 99.1%
- FC vs wild type [7]: 6
- FC vs wild type [8]: 479
- Emax ([8]; HEK-293T): 103%
- FC vs wild type [9]: 1259
- Emax ([9]; HEK-293T): 81.8%
- Emax% [10]: 96.48%
- FC vs wild type [10]: 1
- Emax ([10]; HEK-293T): 96.7%
- activation at 10 pM [10, 36]: 45.5%
- activation at 0.1 µM [10, 36]: 99.7%
- activation at 1 µM [10, 36]: 111%
- activation at 10 µM [10, 36]: 97.8%
- FC vs wild type [11]: 93
- Emax ([11]; HEK-293T): 98.3%
- FC vs wild type [12]: 54
- Emax ([12]; HEK-293T): 85.6%
- FC vs wild type [13]: 13 and ~10
- Emax ([13]; HEK-293T): 96%
- FC vs wild type [14]: 407
- Emax ([14]; HEK-293T): 93.7%
- FC vs wild type [15]: 3
- FC vs wild type [16]: 112
- Emax ([16]; HEK-293T): 99.2%
- FC vs wild type [17]: 162
- FC vs wild type [18]: 1259
- Emax ([18]; HEK-293T): 112%
- bias factor toward G protein signaling [19]: 200
- Emax [20]: 100%
- Emax [21]: 106%
- Emax [22]: 98.2%
- Emax [23]: 105%
- Emax [24]: 104%
- Emax [25]: 78.7%
- Emax [26]: 95.8%
- Emax [27]: 93.1%
- Emax [28]: 77.8%
- Emax% [29]: 99.93%
- Emax ([29]; HEK-293T): 100%
- Emax [30]: 98.8%
- Emax [31]: 74.8%
- Emax [32]: 103%
- Emax [33]: 106%
- Emax [34]: 96%
- Emax [35]: 81.7%
